Experimental data as given in patent publication US20250327029A1, “PROCESS FOR THE OBTENTION OF INVARIANT NATURAL KILLER T CELLS” (Université de Lorraine, priority 2022, published 2025).

System: CD4^− iNKT cells
Experiment: Expansion of iNKT cells from PBMC cultured with alpha-GalCer and a cytokine (IL-15 or IL-2)
Type: cell-based, human
Procedure: The expansion factor of iNKT cells is more preferably comprised between 100 and 10 000. The “expansion factor” corresponds to the number of iNKT cells obtained at day 14 of expansion divided by the number of iNKT cells put in culture at day 0. The number of cells is determined by routinely used techniques by the skilled person (cell couting and flow cytometry staining to determine the percentage of iNKT cells among total PBMCs).
PBMC obtained by centrifugation of fresh whole blood on density gradient were culture at the concentration of 5.10^5 cells/mL in RPMI 1640 advanced medium (ref: 11530446, Gibco®), with 5% SVF v/v, 4 mM glutamine, 100 ng/mL alpha-galactoside-ceramide (KRN-7000, Funakoshi). Cultures were performed in a cell culture bag in a normoxia incubator at 37° C. and 5% CO2.
On day 1 of culture, 10 ng/mL of IL-15 were added.
On day 7 of culture, 50% of the medium was changed and 10 ng/mL of IL-15 were introduced.
On day 10 of the culture, 50% of the medium was changed and 10 ng/mL of IL-15 were introduced.
On day 14 of the culture, the obtained iNKT cells were sorted by performing a magnetic CD4^+ cell isolation (CD4 MicroBeads kit commercialized by Miltenyi Biotec Inc.), retrieving the negative fraction, performing a magnetic iNKT^+ isolation on said fraction (Anti-iNKT MicroBeads kit commercialized by Miltenyi Biotec Inc.) and retrieving the positive fraction corresponding to the isolated CD4^− iNKT cell population.

IL-15: human cytokine that stimulates the proliferation of T-lymphocytes; Uniprot P40933
mean % CD4^− iNKT cells±SEM (D14 of culture, n=14): 60.6±5.23%
mean expansion factor of CD4^− iNKT cells±SEM (cytokine present during expansion phase, n=17, cells at day 14 / cells at day 0): 652±128
CD4^− iNKT cells among the expanded iNKT cells (end of 14-day culture, healthy donor PBMC): 61%
percentage of iNKT cells at the end of the 14-day culture (% among total T lymphocytes) (healthy donor PBMC, 0.82% iNKT at D0): 81.5%
